Experimental data: patent US20240217978A1 (CHONG KUN DANG PHARMACEUTICAL CORP., priority 2021, published 2024)

Molecular target: human adenosine A2a receptor (Homo sapiens (Human), UniProt P29274)
Experiment: A2a receptor binding affinity, [3H]-NECA radioligand binding test
Conditions: [3H]-NECA 37 nM; membrane from HEK-293 cells transfected with human adenosine A2a receptor
Procedure: The binding affinity of the compounds according to Examples of the present invention to the human adenosine A2a receptor was evaluated by entrusting SB drug discovery in the UK.
A radioligand binding test was conducted by using [3H]-NECA (5′-N-[adenine-2,8-3H]-ethylcarboxamidoadenosine) and an adenosine A2a membrane. As the adenosine A2a membrane, a cell membrane prepared from HEK-293 cells transfected with human adenosine A2a receptor was used. The membrane used for the test was prepared by incubating with a radioligand until equilibrium was reached. In order to separate the radioligand-bound membrane, the unbound radioligand was separated by using Packard filtermate Harverster and glass filter plates.
10 μL of test compound dissolved in binding buffer (50 mM Tris, 10 mM MgCl2, 1 mM EDTA pH 7.4) and 20 μL of [3H]-NECA (final concentration of 37 nM) or reference inhibitor was mixed with 20 μL of A2a membrane in an unbound 96-well plate and incubated at room temperature for one hour. Prior to filtration, a 96-well harvest filter plate was coated with 0.33% polyethylenimine for 30 minutes and then washed with assay buffer. The binding reaction was transferred to the filter plate and washed three times with wash buffer. The dish was then dried, scintillant was added, and radioactivity was counted in a scintillation counter (Topcount NXT, Packard).
The binding affinity IC50 (μM) for the human adenosine A2a receptor obtained according to the above experimental method is shown in the table below.

Chain of human adenosine A2a receptor (P29274 whole entry): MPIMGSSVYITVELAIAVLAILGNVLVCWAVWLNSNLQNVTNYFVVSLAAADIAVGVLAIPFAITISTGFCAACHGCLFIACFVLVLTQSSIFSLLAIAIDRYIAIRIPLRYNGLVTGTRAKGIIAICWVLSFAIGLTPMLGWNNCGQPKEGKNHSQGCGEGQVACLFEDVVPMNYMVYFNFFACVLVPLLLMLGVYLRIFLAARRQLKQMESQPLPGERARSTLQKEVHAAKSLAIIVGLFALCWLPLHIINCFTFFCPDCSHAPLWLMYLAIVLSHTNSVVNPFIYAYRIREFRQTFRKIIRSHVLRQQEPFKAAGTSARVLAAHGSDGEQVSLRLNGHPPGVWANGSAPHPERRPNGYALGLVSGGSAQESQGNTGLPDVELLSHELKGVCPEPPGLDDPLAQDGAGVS

SMILES	IC50
Nc1nc(N2CCC[C@H]2C(=O)N2CCN(C(=O)c3ccc(F)cc3F)CC2)nc2nc(-c3ccco3)nn12 [Example 64, (4-((7-amino-2-(furan-2-yl)-[1,2,4]triazolo[1,5-a][1,3,5]triazin-5-yl)-L-prolyl)piperazin-1-yl)(2,4-difluorophenyl)methanone]	14 nM
Nc1nc(N2CC[C@H]2C(=O)N2CCN(CC(=O)N3CCOCC3)CC2)nc2nc(-c3ccco3)nn12 [Example 65, (S)-2-(4-(1-(7-amino-2-(furan-2-yl)-[1,2,4]triazolo[1,5-a][1,3,5]triazin-5-yl)azetidine-2-carbonyl)piperazin-1-yl)-1-morpholinoethan-1-one]	10 nM
CC(c1ccccc1)N1CCN(C(=O)[C@@H]2CCCN2c2nc(N)n3nc(-c4ccco4)nc3n2)CC1 (stereo partly drawn) [Example 66]	7 nM
Nc1nc(N2CCC[C@H]2C(=O)N2CCN(c3ccc(F)cc3F)CC2)nc2nc(-c3nccs3)nn12 [Example 67, (S)-(1-(7-amino-2-(thiazol-2-yl)-[1,2,4]triazolo[1,5-a][1,3,5]triazin-5-yl)pyrrolidin-2-yl)(4-(2,4-difluorophenyl)piperazin-1-yl)methanone]	3 nM
Nc1nc(N2CCC[C@H]2C(=O)N2CCN(S(=O)(=O)CC3CC3)CC2)nc2nc(-c3ccco3)nn12 [Example 68, (S)-(1-(7-amino-2-(furan-2-yl)-[1,2,4]triazolo[1,5-a][1,3,5]triazin-5-yl)pyrrolidin-2-yl)(4-((cyclopropylmethyl)sulfonyl)piperazin-1-yl)methanone]	9 nM
Nc1nc(N2CCC[C@H]2C(=O)N2CCN(S(=O)(=O)C3CC3)CC2)nc2nc(-c3ccco3)nn12 [Example 69, (S)-(1-(7-amino-2-(furan-2-yl)-[1,2,4]triazolo[1,5-a][1,3,5]triazin-5-yl)pyrrolidin-2-yl)(4-(cyclopropylsulfonyl)piperazin-1-yl)methanone]	68 nM
Nc1nc(N2CCC[C@H]2C(=O)N2CCN(S(=O)(=O)CCOc3ccccc3)CC2)nc2nc(-c3ccco3)nn12 [Example 70, (S)-(1-(7-amino-2-(furan-2-yl)-[1,2,4]triazolo[1,5-a][1,3,5]triazin-5-yl)pyrrolidin-2-yl)(4-((2-phenoxyethyl)sulfonyl)piperazin-1-yl)methanone]	4 nM
CC(C)S(=O)(=O)N1CCN(C(=O)[C@@H]2CCCN2c2nc(N)n3nc(-c4ccco4)nc3n2)CC1 [Example 71, (S)-(1-(7-amino-2-(furan-2-yl)-[1,2,4]triazolo[1,5-a][1,3,5]triazin-5-yl)pyrrolidin-2-yl)(4-(isopropylsulfonyl)piperazin-1-yl)methanone]	10 nM
CCC(C)S(=O)(=O)N1CCN(C(=O)[C@@H]2CCCN2c2nc(N)n3nc(-c4ccco4)nc3n2)CC1 (stereo partly drawn) [Example 72, ((S)-1-(7-amino-2-(furan-2-yl)-[1,2,4]triazolo[1,5-a][1,3,5]triazin-5-yl)pyrrolidin-2-yl)(4-(sec-butylsulfonyl)piperazin-1-yl)methanone]	1 nM
Nc1nc(N2CCC[C@H]2C(=O)N2CCN(C(=O)CC(F)(F)F)CC2)nc2nc(-c3ccco3)nn12 [Example 73, 1-(4-((7-amino-2-(furan-2-yl)-[1,2,4]triazolo[1,5-a][1,3,5]triazin-5-yl)-L-prolyl)piperazin-1-yl)-3,3,3-trifluoropropan-1-one]	11 nM
Nc1nc(N2CCC[C@H]2C(=O)N2CCN(C(=O)C3(C(F)(F)F)CC3)CC2)nc2nc(-c3ccco3)nn12 [Example 74]	13 nM
Nc1nc(N2CCC[C@H]2C(=O)N2CCN(C(=O)C3(C(F)(F)F)CCC3)CC2)nc2nc(-c3ccco3)nn12 [Example 75]	9 nM
Nc1nc(N2CCC[C@H]2C(=O)N2CCN(C(=O)C3(C(F)(F)F)CCCC3)CC2)nc2nc(-c3ccco3)nn12 [Example 76]	2 nM
Nc1nc(N2CCC[C@H]2C(=O)N2CCN(C(=O)C3(C(F)(F)F)CCCCC3)CC2)nc2nc(-c3ccco3)nn12 [Example 77]	0.4 nM
Nc1nc(N2CCC[C@H]2C(=O)N2CCC(C(=O)Nc3ccccc3)CC2)nc2nc(-c3ccco3)nn12 [Example 78, 1-((7-amino-2-(furan-2-yl)-[1,2,4]triazolo[1,5-a][1,3,5]triazin-5-yl)-L-prolyl)-N-phenylpiperidin-4-carboxamide]	14 nM
Nc1nc(N2CCC[C@H]2C(=O)N2CCC(C(=O)Nc3ccccn3)CC2)nc2nc(-c3ccco3)nn12 [Example 79, 1-((7-amino-2-(furan-2-yl)-[1,2,4]triazolo[1,5-a][1,3,5]triazin-5-yl)-L-prolyl)-N-(pyridin-2-yl)piperidin-4-carboxamide]	11 nM
Nc1nc(N2CCC[C@H]2C(=O)N2CCC(C(=O)Nc3cnccn3)CC2)nc2nc(-c3ccco3)nn12 [Example 80, 1-((7-amino-2-(furan-2-yl)-[1,2,4]triazolo[1,5-a][1,3,5]triazin-5-yl)-L-prolyl)-N-(pyrazin-2-yl)piperidin-4-carboxamide]	7 nM
Nc1nc(N2CCC[C@H]2C(=O)N2CCC(C(=O)NCc3ccccc3)CC2)nc2nc(-c3ccco3)nn12 [Example 81, 1-((7-amino-2-(furan-2-yl)-[1,2,4]triazolo[1,5-a][1,3,5]triazin-5-yl)-L-prolyl)-N-benzylpiperidin-4-carboxamide]	8 nM
CN1CCN(c2cccc(C(=O)N3CCN(C(=O)[C@@H]4CCCN4c4nc(N)n5nc(-c6ccco6)nc5n4)CC3)c2)CC1 [Example 82, (4-((7-amino-2-(furan-2-yl)-[1,2,4]triazolo[1,5-a][1,3,5]triazin-5-yl)-L-prolyl)piperazin-1-yl)(3-(4-methylpiperazin-1-yl)phenyl)methanone]	6 nM
Nc1nc(N2CCC[C@H]2C(=O)N2CCN(C(=O)c3ccc(C(F)(F)F)cn3)CC2)nc2nc(-c3ccco3)nn12 [Example 83]	16 nM
Cc1ccc(-c2nc3nc(N4CCC[C@H]4C(=O)N4CCN(C5CCCCC5)CC4)nc(N)n3n2)o1 [Example 84, (S)-(1-(7-amino-2-(5-methylfuran-2-yl)-[1,2,4]triazolo[1,5-a][1,3,5]triazin-5-yl)pyrrolidin-2-yl)(4-cyclohexylpiperazin-1-yl)methanone]	14 nM
CC(C)(F)C(=O)N1CCN(C(=O)[C@@H]2CCCN2c2nc(N)n3nc(-c4ccco4)nc3n2)CC1 [Example 85, 1-(4-((7-amino-2-(furan-2-yl)-[1,2,4]triazolo[1,5-a][1,3,5]triazin-5-yl)-L-prolyl)piperazin-1-yl)-2-fluoro-2-methylpropan-1-one]	28 nM
CC(C)(C(=O)N1CCN(C(=O)[C@@H]2CCCN2c2nc(N)n3nc(-c4ccco4)nc3n2)CC1)C(F)(F)F [Example 86, 1-(4-((7-amino-2-(furan-2-yl)-[1,2,4]triazolo[1,5-a][1,3,5]triazin-5-yl)-L-prolyl)piperazin-1-yl)-3,3,3-trifluoro-2,2-dimethylpropan-1-one]	15 nM
Cc1ccc(-c2nc3nc(N4CCC[C@H]4C(=O)N4CCN(c5ccc(F)cc5F)CC4)nc(N)n3n2)o1 [Example 87, (S)-(1-(7-amino-2-(5-methylfuran-2-yl)-[1,2,4]triazolo[1,5-a][1,3,5]triazin-5-yl)pyrrolidin-2-yl)(4-(2,4-difluorophenyl)piperazin-1-yl)methanone]	1 nM
